Assay results taken from patent publication US9550739B2, “Molecules having certain pesticidal utilities, and intermediates, compositions, and processes related thereto” (priority 2014, dated 2017).

Experiments:
Format in all cases: in vivo
[1] = tested on: Cabbage Looper (Trichoplusia ni, TRIPNI) ("CL"); assay: Bioassays on Cabbage Looper (CL), 128-well diet tray assay; settings: Trichoplusia ni, 168 h, read-out: CL % Control (or Mortality) rating
Method: (§1) Certain molecules disclosed in this document were tested against BAW and CEW using procedures described in the following examples. In the reporting of the results, the “BAW & CL Rating Table” was used (See Table Section).
Bioassays on CL were conducted using a 128-well diet tray assay. one to five second instar CL larvae were placed in each well (3 mL) of the diet tray that had been previously filled with 1 mL of artificial diet to which 50 μg/cm^2 of the test compound (dissolved in 50 μL of 90:10 acetone-water mixture) had been applied (to each of eight wells) and then allowed to dry. Trays were covered with a clear self-adhesive cover and held at 25° C., 14:10 light-dark for five to seven days. Percent mortality was recorded for the larvae in each well; activity in the eight wells was then averaged. The results are indicated in the table entitled “Table ABC: Biological Results” (See Table Section).

[2] = tested on: Beet Armyworm (Spodoptera exigua, LAPHEG) ("BAW"); assay: Bioassays on Beet Armyworm (BAW), 128-well diet tray assay; settings: Spodoptera exigua, 168 h; second instar BAW larvae, 50 μg/cm^2 on artificial diet, five to seven days, 25° C.; read-out: BAW % Control (or Mortality) rating
Method: as §1
Bioassays on BAW were conducted using a 128-well diet tray assay. one to five second instar BAW larvae were placed in each well (3 mL) of the diet tray that had been previously filled with 1 mL of artificial diet to which 50 μg/cm^2 of the test compound (dissolved in 50 μL of 90:10 acetone-water mixture) had been applied (to each of eight wells) and then allowed to dry. Trays were covered with a clear self-adhesive cover and held at 25° C., 14:10 light-dark for five to seven days. Percent mortality was recorded for the larvae in each well; activity in the eight wells was then averaged. The results are indicated in the table entitled “Table ABC: Biological Results” (See Table Section).

[3] = tested on: Yellow Fever Mosquito (Aedes aegypti, AEDSAE) ("YFM"); settings: about 1 day-old larvae, 4000 ppm master solution diluted, 3 days, room temperature
Method: Certain molecules disclosed in this document were tested against YFM using procedures described in the following paragraph. In the reporting of the results, the “YFM Rating Table” was used (See Table Section).
Master plates containing 400 μg of a molecule dissolved in 100 μL of dimethyl sulfoxide (DMSO) (equivalent to a 4000 ppm solution) are used. A master plate of assembled molecules contains 15 μL per well. To this plate, 135 μL of a 90:10 water:acetone mixture is added to each well. A robot (Biomek® NXP Laboratory Automation Workstation) is programmed to dispense 15 μL aspirations from the master plate into an empty 96-well shallow plate (“daughter” plate). There are 6 reps (“daughter” plates) created per master. The created daughter plates are then immediately infested with YFM larvae.
The day before plates are to be treated, mosquito eggs are placed in Millipore water containing liver powder to begin hatching (4 g. into 400 mL). After the daughter plates are created using the robot, they are infested with 220 μL of the liver powder/larval mosquito mixture (about 1 day-old larvae). After plates are infested with mosquito larvae, a non-evaporative lid is used to cover the plate to reduce drying. Plates are held at room temperature for 3 days prior to grading. After 3 days, each well is observed and scored based on mortality.

| Compound | mortality at 50 µg/cm2 [1] [%] | mortality at 50 µg/cm2 [2] [%] | YFM % Control (or Mortality) rating [3] |
| --- | --- | --- | --- |
| Cc1ccccc1-c1cc(C(=O)Nc2ccc(-c3ncn(-c4ccc(OC(F)(F)F)cc4)n3)cc2)ccc1Cl [F32, 6-Chloro-2′-methyl-N-(4-(1-(4-(trifluoromethoxy)phenyl)-1H-1,2,4-triazol-3-yl)phenyl)-[1,1′-biphenyl]-3-carboxamide] | 50 to 100 | 0 | D (No activity noticed in this bioassay) |
| Cc1ccccc1-c1cccc(C(=O)Nc2ccc(-c3ncn(-c4ccc(OC(F)(F)F)cc4)n3)cc2)n1 [F33, 6-(o-Tolyl)-N-(4-(1-(4-(trifluoromethoxy)phenyl)-1H-1,2,4-triazol-3-yl)phenyl)picolinamide] | 50 to 100 | 0 | D (No activity noticed in this bioassay) |
| Cc1ccccc1-c1cccc(C(=O)Nc2ccc(-c3ncn(-c4ccc(OC(F)(F)F)cc4)n3)cc2)c1 [F17, 2′-Methyl-N-(4-(1-(4-(trifluoromethoxy)phenyl)-1H-1,2,4-triazol-3-yl)phenyl)-[1,1′-biphenyl]-3-carboxamide] | 50 to 100 | 50 to 100 | D (No activity noticed in this bioassay) |
| CC(C)Oc1ccc(-n2cnc(-c3ccc(NC(=O)c4ccc(F)c(-c5ccccc5)c4)cc3)n2)cc1 [F16, 6-Fluoro-N-(4-(1-(4-isopropoxyphenyl)-1H-1,2,4-triazol-3-yl)phenyl)-[1,1′-biphenyl]-3-carboxamide] | 50 to 100 | 0 | B (More than 0-Less than 80) |
| O=C(Nc1ccc(-c2ncn(-c3ccc(OC(F)(F)C(F)(F)F)cc3)n2)cc1)c1cccc(-c2ccccc2OC(F)(F)F)c1 [F36, N-(4-(1-(4-(Perfluoroethoxy)phenyl)-1H-1,2,4-triazol-3-yl)phenyl)-2′-(trifluoromethoxy)-[1,1′-biphenyl]-3-carboxamide] | 50 to 100 | 0 | D (No activity noticed in this bioassay) |
| O=C(Nc1ccc(-c2ncn(-c3ccc(OC(F)(F)C(F)(F)F)cc3)n2)cc1)c1cccc(-c2ccccc2)c1 [F45, N-(4-(1-(4-(perfluoroethoxy)phenyl)-1H-1,2,4-triazol-3-yl)phenyl)-[1,1′-biphenyl]-3-carboxamide] | 50 to 100 | 50 to 100 | D (No activity noticed in this bioassay) |
| Cc1ccc(-c2cccc(C(=O)Nc3ccc(-c4ncn(-c5ccc(OC(F)(F)F)cc5)n4)cc3)n2)c(C)c1 [F2, 6-(2,4-Dimethylphenyl)-N-(4-(1-(4-(trifluoromethoxy)phenyl)-1H-1,2,4-triazol-3-yl)phenyl)picolinamide] | 0 | 0 to 50 | D (No activity noticed in this bioassay) |
| CN(C)c1ccccc1-c1cccc(C(=O)NCCc2ccc(-c3ncn(-c4ccc(OC(F)(F)F)cc4)n3)cc2)c1 [F52, 2′-(Dimethylamino)-N-(4-(1-(4-(trifluoromethoxy)phenyl)-1H-1,2,4-triazol-3-yl)phenethyl)-[1,1′-biphenyl]-3-carboxamide] | 50 to 100 | 50 to 100 | A (80-100) |
| Cc1ccccc1-c1cccc(C(=O)Nc2ccc(-c3ncn(-c4ccc(OC(F)(F)C(F)(F)F)cc4)n3)cc2)c1 [F35, 2′-Methyl-N-(4-(1-(4-(perfluoroethoxy)phenyl)-1H-1,2,4-triazol-3-yl)phenyl)-[1,1′-biphenyl]-3-carboxamide] | 50 to 100 | 50 to 100 | D (No activity noticed in this bioassay) |
| COc1ccccc1-c1cccc(C(=O)NCCc2ccc(-c3ncn(-c4ccc(OC(F)(F)F)cc4)n3)cc2)c1 [F50, 2′-methoxy-N-(4-(1-(4-(trifluoromethoxy)phenyl)-1H-1,2,4-triazol-3-yl)phenethyl)-[1,1′-biphenyl]-3-carboxamide] | 50 to 100 | 50 to 100 | D (No activity noticed in this bioassay) |
| Cc1ccccc1-c1cc(C(=O)Nc2ccc(-c3ncn(-c4ccc(C(F)(F)F)cc4)n3)cc2)ccc1F [F58, 6-Fluoro-2′-methyl-N-(4-(1-(4-(trifluoromethyl)phenyl)-1H-1,2,4-triazol-3-yl)phenyl)-[1,1′-biphenyl]-3-carboxamide] | 50 to 100 | 50 to 100 | D (No activity noticed in this bioassay) |
| COc1ccccc1-c1cc(C(=O)Nc2ccc(-c3ncn(-c4ccc(OC(F)(F)C(F)(F)F)cc4)n3)cc2)ccc1F [F7, 6-Fluoro-2′-methoxy-N-(4-(1-(4-(perfluoroethoxy)phenyl)-1H-1,2,4-triazol-3-yl)phenyl)-[1,1′-biphenyl]-3-carboxamide] | 50 to 100 | 50 to 100 | D (No activity noticed in this bioassay) |
| O=C(NCCc1ccc(-c2ncn(-c3ccc(OC(F)(F)F)cc3)n2)cc1)c1ccc(F)c(-c2ccccc2)c1 [F51, 6-Fluoro-N-(4-(1-(4-(trifluoromethoxy)phenyl)-1H-1,2,4-triazol-3-yl)phenethyl)-[1,1′-biphenyl]-3-carboxamide] | 0 | 50 to 100 | D (No activity noticed in this bioassay) |
| COc1ccc(C(=O)Nc2ccc(-c3ncn(-c4ccc(OC(F)(F)C(F)(F)F)cc4)n3)cc2)cc1-c1ccccc1 [F13, 6-Methoxy-N-(4-(1-(4-(perfluoroethoxy)phenyl)-1H-1,2,4-triazol-3-yl)phenyl)-[1,1′-biphenyl]-3-carboxamide] | 50 to 100 | 0 | D (No activity noticed in this bioassay) |
| Cc1cccc(C)c1-c1cccc(C(=S)Nc2ccc(-c3ncn(-c4ccc(OC(F)(F)F)cc4)n3)cc2)c1 [F46, 2′,6′-dimethyl-N-(4-(1-(4-(trifluoromethoxy)phenyl)-1H-1,2,4-triazol-3-yl)phenyl)-[1,1′-biphenyl]-3-carbothioamide] | 0 | 0 to 50 | D (No activity noticed in this bioassay) |
| COc1ccccc1-c1cc(C(=O)N(C(C)=O)c2ccc(-c3ncn(-c4ccc(OC(F)(F)F)cc4)n3)cc2)ccc1F [F67, N-acetyl-6-fluoro-2′-methoxy-N-(4-(1-(4-(trifluoromethoxy)phenyl)-1H-1,2,4-triazol-3-yl)phenyl)-[1,1′-biphenyl]-3-carboxamide] | 50 to 100 | 50 to 100 | A (80-100) |
| COc1ccccc1-c1cc(C(=O)N(CC2CC2)c2ccc(-c3ncn(-c4ccc(OC(F)(F)F)cc4)n3)cc2)ccc1F [F66, N-(cyclopropylmethyl)-6-fluoro-2′-methoxy-N-(4-(1-(4-(trifluoromethoxy)phenyl)-1H-1,2,4-triazol-3-yl)phenyl)-[1,1′-biphenyl]-3-carboxamide] | 50 to 100 | 50 to 100 | D (No activity noticed in this bioassay) |
| CC(=O)c1ccccc1-c1cccc(C(=O)Nc2ccc(-c3ncn(-c4ccc(OC(F)(F)F)cc4)n3)cc2)c1 [F41, 2′-Acetyl-N-(4-(1-(4-(trifluoromethoxy)phenyl)-1H-1,2,4-triazol-3-yl)phenyl)-[1,1′-biphenyl]-3-carboxamide] | 50 to 100 | 50 to 100 | A (80-100) |
| O=C(Nc1ccc(-c2ncn(-c3ccc(OC(F)(F)C(F)(F)F)cc3)n2)cc1)c1cccc(-c2ccccc2)n1 [F47, N-(4-(1-(4-(Perfluoroethoxy)phenyl)-1H-1,2,4-triazol-3-yl)phenyl)-6-phenylpicolinamide] | 0 | 0 | D (No activity noticed in this bioassay) |
